# Patent US20060030620A1, “Method for treating and/or preventing ischemia/reperfusion injury” (priority 2004, published 2006)
# Experiments:
# Type in all cases: in vivo, Spargue-Dawley rats
# [1] = system: liver ischemia/reperfusion injury; assay: Bile juice ALP during hepatic ischemia/reperfusion; conditions: after 120 minutes of reperfusion, MA 100 mg/kg
# Protocol: (§1) The liver was then examined by the following assays.
# (§2) The collected blood samples were centrifuged at 4000 g×5 min to separate the plasma, and the levels of aspartate transaminase (AST), alanine transaminase (ALT), and alkaline phosphatase (ALP) in the bile juice were measured with an auto-analyzer (model H-747E, Hitachi Co., Tokyo). Lipid peroxide was followed as Masugi and Nagamura stated by thiobarbituric acid method using malondialdehyde (MDA) tetraethyl acetal as the standard and expressed results of MDA equivalents.
# (§3) Each data was expressed as mean±SD.
# [2] = system: liver ischemia/reperfusion injury; assay: Plasma AST/ALT during hepatic ischemia/reperfusion
# Protocol: as §1, §2, §3
# [3] = system: liver ischemia/reperfusion injury; assay: Lipid peroxidation assay (liver MDA, thiobarbituric acid method); set-up: post-ischemic MDA levels in liver: unit not given here
# Protocol: as §1, §2
# (§4) Protein contents of the collected tissues were assayed with Lowry using bovine serum albumin as the standard. The collected tissue was fixed in saline buffered with 10% formaldehyde solution, embedded in paraffin wax, sliced into 5 μm thickness of each, stained with H&E staining method, and examined with a light microscope by a pathologist independently.
# as §3
# [4] = system: liver ischemia/reperfusion injury; assay: Bile flow during hepatic ischemia/reperfusion
# Source text: as §1, §3
# [5] = system: liver ischemia/reperfusion injury; assay: Histological investigation of the liver after hepatic I/R (H&E); conditions: 70 minutes of ischemia and 120 minutes of reperfusion; MA-treated ischemia group
# Protocol: as §1, §4
# Histological changes in liver after hepatic I/R were kept with the above biochemical experiments of plasma and bile juice analysis. The placebo group was shown on A (100×) and B (400×); wherein “1” is severe endothelial damage, “2” is bile duct dilation, “3,” is parenchyma edema with RBC congestion, “4,” is Cholestasis, and “5” is hepatocyte necrosis. […] The dilated bile duct might be attributed to ischemic process when the clamp was used to stop the blood flow and simultaneously obstruct the bile flow. Parenchyma edema and RBC congestion might develop from the inflammatory process during I/R process.
# [6] = MA 100 mg/kg iv 10 min prior to reperfusion, 70 min ischemia, after 120-minute reperfusion, mean±SD
# [7] = after 60 minutes of reperfusion, P<0.05
# [8] = after 120 minutes of reperfusion, MA 100 mg/kg iv
substance,measurement,setting,value
Magnesium ascorbate,relief of the ALP in bile juice from I/R damage,[1],about 70%
same,bile ALP,[1]; mean±SD,34.5±8.3 U/l
same,increase in AST and ALT activity versus vehicle-treated ischemia rats,"[2]; 1 to 4 hours after reperfusion, MA 100 mg/kg, P<0.05",significantly suppressed
same,average plasma AST level,[2]; [6],2040±882 U/l
same,plasma ALT level,[2]; [6],4466±1745 U/l
same,plasma AST levels compared with the placebo group,"[2]; after 30 minutes of reperfusion, P<0.05",significantly decreased
same,plasma AST levels compared with the placebo group,[2]; [7],significantly decreased
same,decrease of the elevated serum ALT level,[2]; [8],69%
same,decrease of the elevated serum AST level,[2]; [8],78%
same,post-ischemic MDA levels in liver,"[3]; 70 min ischemia and 120 min reperfusion, MA 100 mg/kg 10 min prior to reperfusion, mean±SD, P<0.02",1054±414
same,MDA concentration in liver tissue versus vehicle-treated ischemia group,"[3]; MA 100 mg/kg infusion 10 minutes prior to reperfusion, after 120 minutes of reperfusion",significantly decreased
same,bile flow compared with the control group (sham),[4]; P=0.21,significantly restored resemble to normal values
same,choleretic effect compared with the placebo group,[4]; [7],significantly increased
same,secreted bile juice versus vehicle-treated ischemia group,[4]; after 120 minutes of reperfusion injury,significantly doubled
same,bile flow,"[4]; after 120 minutes of reperfusion, MA 100 mg/kg iv, mean±SD",1.353 ± 0.351 mL/h/kg
same,bile flow compared with the vehicle-treated ischemia group,"[4]; from 60 minutes to 240 minutes of reperfusion, P<0.05",significantly restored
same,histological findings of the liver (H&E),[5],"minor lesions were observed, damaged to the vascular endothelium and cholestasis was also mild"
